# Results as given in US10179174B2, “Method for inducing an immune response and formulations thereof” (priority 2011, dated 2019).
# What was measured:
# CD4 = settings: literature; cited from earlier work
# HSV-1 virus = settings: Peptide J alone; Taylor et al.; cited from earlier work
# BM cells (iDCs) = experiment: Flow cytometry phenotyping of BM cells (iDCs) incubated with LEAPS heteroconjugates or LPS; format: cell-based, BALB/c mice; settings: 14.5 micromoles per well (about 10^6 cells), incubation 24, 48 or 72 hours
substance,measurement,setting,value
"DGQEEKAGVVSTGLI (H-DGQEEKAGVVSTGLI-NH2) [CEL-1000, ICBL peptide derived from the β-chain of MHC II]",binding to CD4,CD4,bind to CD4
"DLLKNGERIEKVE [J Peptide, ICBL derived from amino acids 38-50 of the β-2-microglobulin chain of the MHC I molecule]",protection against infection,HSV-1 virus,does not induce protection against infection
lipopolysaccharide [LPS],"upregulation for CD80, CD86 and MHC II compared to untreated cells",BM cells (iDCs),significant upregulation
